From ChEMBL document CHEMBL4673260, “Pyridine alkaloids with activity in the central nervous system” (Bioorg Med Chem, 2020)

Legend:
[1] = molecular target: Beta-2 adrenergic receptor (Homo sapiens) (UniProt P07550); assay: Inhibition of human adrenergic receptor beta2 expressed in CHO-K1 cells at 10 uM relative to control; format: cell-based
[2] = molecular target: Muscarinic acetylcholine receptor M3 (Homo sapiens, UniProt P20309); assay: Inhibition of human muscarinic M3 receptor expressed in CHO-K1 cells at 10 uM relative to control; format: cell-based
[3] = molecular target: D(4) dopamine receptor (Homo sapiens) (UniProt P21917); assay: Inhibition of human dopamine D4.4 receptor expressed in CHO-K1 cells at 10 uM relative to control; format: cell-based
[4] = molecular target: Histamine H1 receptor (Homo sapiens) (UniProt P35367); assay: Inhibition of human histamine H1 receptor expressed in CHO-K1 cells at 10 uM relative to control; format: cell-based
Sequence of Histamine H1 receptor (Homo sapiens) (P35367 whole entry): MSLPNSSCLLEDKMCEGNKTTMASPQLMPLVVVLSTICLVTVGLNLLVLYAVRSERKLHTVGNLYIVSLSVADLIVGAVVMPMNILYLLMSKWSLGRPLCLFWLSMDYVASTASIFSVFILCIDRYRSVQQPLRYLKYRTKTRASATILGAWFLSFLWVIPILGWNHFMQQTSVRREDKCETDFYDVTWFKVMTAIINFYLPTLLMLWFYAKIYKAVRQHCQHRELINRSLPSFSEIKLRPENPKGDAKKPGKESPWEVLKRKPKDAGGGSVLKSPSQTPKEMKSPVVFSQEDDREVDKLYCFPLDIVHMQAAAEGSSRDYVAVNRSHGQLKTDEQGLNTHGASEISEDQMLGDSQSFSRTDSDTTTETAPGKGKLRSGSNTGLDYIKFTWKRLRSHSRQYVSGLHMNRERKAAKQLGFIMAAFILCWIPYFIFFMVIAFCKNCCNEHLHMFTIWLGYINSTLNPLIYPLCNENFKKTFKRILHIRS

L-type calcium channel = L-type calcium channel (Homo sapiens, UniProt O60840+Q01668+Q13698+Q13936); assay: Inhibition of L-type calcium channel (unknown origin) at 10 uM relative to control; format: protein assay
[5] = molecular target: 5-hydroxytryptamine receptor 1D (Homo sapiens) (UniProt P28221); assay: Inhibition of 5HT-1D receptor (unknown origin) at 10 uM relative to control
Homo sapiens [6] = species: Homo sapiens; assay: Inhibition of GABA-A agonist site (unknown origin) at 10 uM relative to control
[7] = molecular target: D(1A) dopamine receptor (Homo sapiens) (UniProt P21728); assay: Inhibition of human dopamine D1 receptor at 10 uM relative to control
Sequence of D(1A) dopamine receptor (Homo sapiens) (P21728 whole entry): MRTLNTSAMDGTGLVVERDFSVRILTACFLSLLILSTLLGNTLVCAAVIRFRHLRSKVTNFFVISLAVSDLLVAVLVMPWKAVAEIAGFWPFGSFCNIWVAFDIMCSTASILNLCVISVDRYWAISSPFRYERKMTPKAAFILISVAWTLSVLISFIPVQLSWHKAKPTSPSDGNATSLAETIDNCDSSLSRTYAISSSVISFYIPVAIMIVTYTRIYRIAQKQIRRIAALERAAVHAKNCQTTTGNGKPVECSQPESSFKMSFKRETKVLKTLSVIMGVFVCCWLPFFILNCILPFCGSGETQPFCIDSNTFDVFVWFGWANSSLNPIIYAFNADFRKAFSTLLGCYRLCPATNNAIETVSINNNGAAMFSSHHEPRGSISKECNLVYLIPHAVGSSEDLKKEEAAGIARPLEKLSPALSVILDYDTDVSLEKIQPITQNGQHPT

[8] = molecular target: 5-hydroxytryptamine receptor 2C (Homo sapiens) (UniProt P28335); assay: Inhibition of human 5HT-2C receptor at 10 uM relative to control
[9] = molecular target: 5-hydroxytryptamine receptor 7 (Homo sapiens) (UniProt P34969); assay: Inhibition of human 5HT-7 receptor at 10 uM relative to control
Sequence of 5-hydroxytryptamine receptor 7 (Homo sapiens) (P34969 whole entry): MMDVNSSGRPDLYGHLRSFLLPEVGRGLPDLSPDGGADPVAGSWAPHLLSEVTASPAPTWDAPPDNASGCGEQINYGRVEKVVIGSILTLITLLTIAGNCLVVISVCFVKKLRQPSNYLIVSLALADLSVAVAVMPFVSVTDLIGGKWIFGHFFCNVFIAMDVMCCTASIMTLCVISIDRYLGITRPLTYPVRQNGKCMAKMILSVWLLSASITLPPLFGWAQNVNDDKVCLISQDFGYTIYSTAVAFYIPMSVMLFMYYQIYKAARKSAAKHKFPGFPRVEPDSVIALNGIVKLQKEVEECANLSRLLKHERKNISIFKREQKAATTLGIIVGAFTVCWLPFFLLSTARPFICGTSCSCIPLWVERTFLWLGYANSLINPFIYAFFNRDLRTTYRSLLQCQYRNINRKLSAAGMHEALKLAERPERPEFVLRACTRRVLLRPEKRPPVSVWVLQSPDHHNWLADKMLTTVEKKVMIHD

[10] = molecular target: Leukotriene B4 receptor 1 (Homo sapiens) (UniProt Q15722); assay: Inhibition of human BLT expressed in CHO-K1 cells at 10 uM relative to control; format: cell-based
Sequence of Leukotriene B4 receptor 1 (Homo sapiens) (Q15722 whole entry): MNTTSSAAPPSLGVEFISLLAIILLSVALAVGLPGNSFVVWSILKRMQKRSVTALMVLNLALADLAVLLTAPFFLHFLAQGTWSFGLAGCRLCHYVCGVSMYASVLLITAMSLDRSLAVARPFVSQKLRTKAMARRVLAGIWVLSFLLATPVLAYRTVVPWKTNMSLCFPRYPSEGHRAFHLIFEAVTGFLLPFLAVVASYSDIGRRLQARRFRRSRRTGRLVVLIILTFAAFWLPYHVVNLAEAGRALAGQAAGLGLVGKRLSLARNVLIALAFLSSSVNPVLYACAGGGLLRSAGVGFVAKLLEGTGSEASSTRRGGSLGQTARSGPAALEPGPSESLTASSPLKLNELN

[11] = molecular target: Muscarinic acetylcholine receptor M4 (Homo sapiens) (UniProt P08173); assay: Inhibition of human muscarinic M4 receptor expressed in CHO-K1 cells at 10 uM relative to control; format: cell-based
Sequence of Muscarinic acetylcholine receptor M4 (Homo sapiens) (P08173 whole entry): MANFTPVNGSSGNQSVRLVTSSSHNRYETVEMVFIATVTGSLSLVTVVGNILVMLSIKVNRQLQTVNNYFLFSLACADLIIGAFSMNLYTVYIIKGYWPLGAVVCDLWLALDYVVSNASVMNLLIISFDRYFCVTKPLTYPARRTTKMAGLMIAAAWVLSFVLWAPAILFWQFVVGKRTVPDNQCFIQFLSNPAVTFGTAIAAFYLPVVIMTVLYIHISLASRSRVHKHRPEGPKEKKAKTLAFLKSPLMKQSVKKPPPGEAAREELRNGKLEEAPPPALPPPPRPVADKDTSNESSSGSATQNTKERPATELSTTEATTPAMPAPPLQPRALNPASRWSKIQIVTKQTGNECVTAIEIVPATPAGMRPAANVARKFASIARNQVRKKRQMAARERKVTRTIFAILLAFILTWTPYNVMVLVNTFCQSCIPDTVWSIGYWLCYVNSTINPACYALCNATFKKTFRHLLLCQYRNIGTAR

Homo sapiens [12] = species: Homo sapiens; assay: Inhibition of NOS (unknown origin) at 10 uM relative to control
[13] = molecular target: Protein kinase C alpha type (Homo sapiens) (UniProt P17252); assay: Inhibition of human protein kinase Ca at 10 uM relative to control
[14] = Induction of contextual fear extinction in fear-conditioned C57/BlJ6 mouse assessed as decrease in initial freezing behavior at 5 mg/kg administered for 1 week by contextual fear conditioning assay; format: functional; parameters: scale not given: the % may be the effect or the level left; conditions: time 1 weeks
[15] = molecular target: B2 bradykinin receptor (Homo sapiens) (UniProt P30411); assay: Inhibition of BKR2 (unknown origin) at 10 uM relative to control
Sequence of B2 bradykinin receptor (Homo sapiens) (P30411 whole entry): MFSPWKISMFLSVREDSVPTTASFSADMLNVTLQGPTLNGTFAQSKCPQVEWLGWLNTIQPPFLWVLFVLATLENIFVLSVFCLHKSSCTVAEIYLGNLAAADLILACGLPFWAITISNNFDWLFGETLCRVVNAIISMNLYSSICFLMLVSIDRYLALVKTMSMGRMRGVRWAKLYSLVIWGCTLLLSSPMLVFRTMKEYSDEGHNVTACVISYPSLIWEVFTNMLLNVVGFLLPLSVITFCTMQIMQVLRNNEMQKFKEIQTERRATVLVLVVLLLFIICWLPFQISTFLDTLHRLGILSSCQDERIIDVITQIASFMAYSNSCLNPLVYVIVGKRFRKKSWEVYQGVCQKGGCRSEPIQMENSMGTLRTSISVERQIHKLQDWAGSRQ

[16] = molecular target: D(2) dopamine receptor (Homo sapiens) (UniProt P14416); assay: Inhibition of human dopamine D2S receptor expressed in CHO-K1 cells at 10 uM relative to control; format: cell-based
Sequence of D(2) dopamine receptor (Homo sapiens) (P14416 whole entry): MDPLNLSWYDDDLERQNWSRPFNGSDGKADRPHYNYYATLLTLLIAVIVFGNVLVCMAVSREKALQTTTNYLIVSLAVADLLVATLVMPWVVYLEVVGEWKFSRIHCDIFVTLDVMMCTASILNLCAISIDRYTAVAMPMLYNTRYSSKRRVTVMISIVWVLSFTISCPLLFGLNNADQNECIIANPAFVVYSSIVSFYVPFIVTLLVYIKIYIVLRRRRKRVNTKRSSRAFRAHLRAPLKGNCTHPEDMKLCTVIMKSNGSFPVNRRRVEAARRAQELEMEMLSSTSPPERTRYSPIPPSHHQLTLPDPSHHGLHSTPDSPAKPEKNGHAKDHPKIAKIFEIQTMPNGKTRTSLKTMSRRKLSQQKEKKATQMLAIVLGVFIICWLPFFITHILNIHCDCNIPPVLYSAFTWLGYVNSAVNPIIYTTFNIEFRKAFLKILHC

Homo sapiens [17] = species: Homo sapiens; assay: Inhibition of nAChR (unknown origin) at 10 uM relative to control
[18] = molecular target: Thromboxane A2 receptor (Homo sapiens) (UniProt P21731); assay: Inhibition of human Thromboxane A2 at 10 uM relative to control
[19] = molecular target: Adenosine receptor A2a (Homo sapiens) (UniProt P29274); assay: Inhibition of human adenosine receptor A2A expressed in HEK293 cells at 10 uM relative to control; format: cell-based
[20] = molecular target: 5-hydroxytryptamine receptor 3A (Homo sapiens) (UniProt P46098); assay: Inhibition of 5HT-3 (unknown origin) receptor at 10 uM relative to control
Sequence of 5-hydroxytryptamine receptor 3A (Homo sapiens) (P46098 whole entry): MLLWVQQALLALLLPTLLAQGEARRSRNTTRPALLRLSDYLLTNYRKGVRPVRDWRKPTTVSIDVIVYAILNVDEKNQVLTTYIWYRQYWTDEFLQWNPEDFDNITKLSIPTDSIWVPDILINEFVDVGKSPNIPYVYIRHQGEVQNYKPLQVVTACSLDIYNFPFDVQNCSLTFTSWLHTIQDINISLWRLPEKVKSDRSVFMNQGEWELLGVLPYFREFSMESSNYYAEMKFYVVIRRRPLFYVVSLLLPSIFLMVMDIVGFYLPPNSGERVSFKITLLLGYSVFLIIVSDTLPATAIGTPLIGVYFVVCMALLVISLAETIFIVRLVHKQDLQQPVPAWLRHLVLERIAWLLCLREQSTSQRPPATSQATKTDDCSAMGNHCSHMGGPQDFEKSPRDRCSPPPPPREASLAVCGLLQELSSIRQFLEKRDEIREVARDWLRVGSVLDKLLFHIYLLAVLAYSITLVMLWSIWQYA

Homo sapiens [21] = species: Homo sapiens; assay: Inhibition of GABA receptor chloride/TBOB site (unknown origin) at 10 uM relative to control
Homo sapiens [22] = species: Homo sapiens; assay: Inhibition of sodium channel site2 (unknown origin) at 10 uM relative to control
[23] = molecular target: Neuronal acetylcholine receptor; alpha4/beta2 (Rattus norvegicus, UniProt P09483+P12390); assay: Displacement of [3H]epibatidine from alpha4beta2 nAChR in rat frontal cortex membrane by scintillation counting method; format: cell membranes
Sequence of Neuronal acetylcholine receptor; alpha4/beta2 (P09483 whole entry): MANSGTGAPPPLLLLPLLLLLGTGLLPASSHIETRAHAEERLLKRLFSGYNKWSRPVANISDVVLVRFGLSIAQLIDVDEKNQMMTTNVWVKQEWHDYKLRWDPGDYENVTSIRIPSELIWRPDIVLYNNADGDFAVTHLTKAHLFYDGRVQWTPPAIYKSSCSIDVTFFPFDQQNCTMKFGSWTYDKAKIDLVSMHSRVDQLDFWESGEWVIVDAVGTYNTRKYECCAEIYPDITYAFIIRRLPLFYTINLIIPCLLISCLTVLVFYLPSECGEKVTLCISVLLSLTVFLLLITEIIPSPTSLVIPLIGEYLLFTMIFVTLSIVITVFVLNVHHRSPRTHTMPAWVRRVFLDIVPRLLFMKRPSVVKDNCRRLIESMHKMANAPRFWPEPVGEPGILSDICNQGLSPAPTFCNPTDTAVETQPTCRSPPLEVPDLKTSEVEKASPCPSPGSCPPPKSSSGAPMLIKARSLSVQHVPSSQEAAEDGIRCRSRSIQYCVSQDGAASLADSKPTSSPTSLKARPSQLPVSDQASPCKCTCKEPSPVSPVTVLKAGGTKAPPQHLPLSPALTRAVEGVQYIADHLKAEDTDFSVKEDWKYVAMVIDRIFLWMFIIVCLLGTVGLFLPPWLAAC
Sequence of Neuronal acetylcholine receptor; alpha4/beta2 (P12390 whole entry): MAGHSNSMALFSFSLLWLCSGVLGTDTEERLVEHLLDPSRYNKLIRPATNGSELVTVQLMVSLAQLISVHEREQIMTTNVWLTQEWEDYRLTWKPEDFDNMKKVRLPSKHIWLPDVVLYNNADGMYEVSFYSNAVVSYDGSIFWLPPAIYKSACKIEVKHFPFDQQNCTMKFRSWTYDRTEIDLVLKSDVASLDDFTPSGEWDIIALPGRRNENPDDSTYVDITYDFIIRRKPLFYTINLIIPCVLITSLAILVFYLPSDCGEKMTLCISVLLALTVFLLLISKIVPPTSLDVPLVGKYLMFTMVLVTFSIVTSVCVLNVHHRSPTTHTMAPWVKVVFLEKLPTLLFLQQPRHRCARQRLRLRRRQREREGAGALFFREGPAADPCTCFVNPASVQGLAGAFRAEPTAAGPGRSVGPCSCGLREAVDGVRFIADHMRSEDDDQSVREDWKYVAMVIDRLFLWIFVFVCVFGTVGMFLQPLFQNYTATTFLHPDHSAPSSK

Homo sapiens [24] = species: Homo sapiens; assay: Inhibition of Glutamate receptor ionotropic NMDA phencyclidine site (unknown origin) at 10 uM relative to control
[25] = molecular target: Cysteinyl leukotriene receptor 1 (Homo sapiens) (UniProt Q9Y271); assay: Inhibition of human CYSLTR1 expressed in CHO-K1 cells at 10 uM relative to control; format: cell-based
Homo sapiens [26] = species: Homo sapiens; assay: Inhibition of Glutamate receptor ionotropic kainate site (unknown origin) at 10 uM relative to control
Homo sapiens [27] = species: Homo sapiens; assay: Inhibition of N-type calcium channel (unknown origin) at 10 uM relative to control

**Q.** With CN1C(=O)CC[C@H]1c1cccnc1 [COTININE] as the compound, how does the inhibition [1] read?
**A.** < 50%

**Q.** What about the inhibition [2] of the same compound?
**A.** < 50%

**Q.** And the inhibition [3]?
**A.** < 50%

**Q.** And the inhibition [4]?
**A.** < 50%

**Q.** And the inhibition at 10 µM (L-type calcium channel)?
**A.** < 50%

**Q.** And the inhibition [5]?
**A.** < 50%

**Q.** What about the inhibition (Homo sapiens [6]) of the same compound?
**A.** < 50%

**Q.** What about the inhibition [7] of the same compound?
**A.** < 50%

**Q.** And the inhibition [8]?
**A.** < 50%

**Q.** And the inhibition [9]?
**A.** < 50%

**Q.** And the inhibition [10]?
**A.** < 50%

**Q.** What about the inhibition [11] of the same compound?
**A.** < 50%

**Q.** And the inhibition (Homo sapiens [12])?
**A.** < 50%

**Q.** And the inhibition [13]?
**A.** < 50%

**Q.** And the Activity [14]?
**A.** >=20%

**Q.** What about the inhibition [15] of the same compound?
**A.** < 50%

**Q.** What about the inhibition [16] of the same compound?
**A.** < 50%

**Q.** What about the inhibition (Homo sapiens [17]) of the same compound?
**A.** < 50%

**Q.** And the inhibition [18]?
**A.** < 50%

**Q.** What about the inhibition [19] of the same compound?
**A.** < 50%

**Q.** And the inhibition [20]?
**A.** < 50%

**Q.** And the inhibition (Homo sapiens [21])?
**A.** < 50%

**Q.** What about the inhibition (Homo sapiens [22]) of the same compound?
**A.** < 50%

**Q.** What about the Ki [23] of the same compound?
**A.** 3 µM

**Q.** What about the inhibition (Homo sapiens [24]) of the same compound?
**A.** < 50%

**Q.** What about the inhibition [25] of the same compound?
**A.** < 50%

**Q.** And the inhibition (Homo sapiens [26])?
**A.** < 50%

**Q.** And the inhibition (Homo sapiens [27])?
**A.** < 50%
